# Measured values taken from ChEMBL document CHEMBL1151757, “Synthesis, radiosynthesis, and biological evaluation of fluorine-18-labeled 2beta-carbo(fluoroalkoxy)-3beta-(3'-((Z)-2-haloethenyl)phenyl)nortropanes: candidate radioligands for in vivo imaging of the serotonin transporter with positron emission tomography” (J Med Chem, 2008).
# How the values were obtained:
# Midbrain [1] = experiment: Drug uptake in anesthetized cynomolgus monkey brain midbrain after 185 mins postinjection; format: ADME, organism-based, Macaca fascicularis; conditions: in vivo
# Putamen [2] = experiment: Drug uptake in anesthetized cynomolgus monkey brain putamen after 22.5 mins postinjection; format: ADME, organism-based, Macaca fascicularis; set-up: unit not given here; conditions: in vivo, 0.375 h
# Pons [3] = experiment: Drug uptake in anesthetized cynomolgus monkey brain pons after 75 mins postinjection; format: ADME, organism-based, Macaca fascicularis; conditions: in vivo, 1.25 h
# [4] = Drug uptake in anesthetized cynomolgus monkey brain cerebellum after 225 mins postinjection; format: ADME, organism-based, Macaca fascicularis; conditions: in vivo, 3.75 h
# [5] = Ratio of drug uptake in caudate to cerebellum in anesthetized cynomolgus monkey after 9.5 mins postinjection; format: ADME, organism-based, Macaca fascicularis; conditions: in vivo
# [6] = Drug uptake in anesthetized cynomolgus monkey brain cerebellum after 175 mins postinjection; format: ADME, organism-based, Macaca fascicularis; conditions: in vivo
# [7] = Ratio of drug uptake in pons to cerebellum in anesthetized cynomolgus monkey after 105 mins postinjection; format: ADME, organism-based, Macaca fascicularis; conditions: in vivo, 1.75 h
# Putamen [8] = experiment: Drug uptake in anesthetized cynomolgus monkey brain putamen after 2.5 mins postinjection; format: ADME, organism-based, Macaca fascicularis; conditions: in vivo
# Pons [9] = experiment: Drug uptake in anesthetized cynomolgus monkey brain pons after 65 mins postinjection; format: ADME, organism-based, Macaca fascicularis; conditions: in vivo
# [10] = Drug uptake in anesthetized cynomolgus monkey brain cerebellum after 215 mins postinjection; format: ADME, organism-based, Macaca fascicularis; conditions: in vivo
# Pons [11] = experiment: Drug uptake in anesthetized cynomolgus monkey brain pons after 105 mins postinjection; format: ADME, organism-based, Macaca fascicularis; conditions: in vivo, 1.75 h
# Midbrain [12] = experiment: Drug uptake in anesthetized cynomolgus monkey brain midbrain after 135 mins postinjection; format: ADME, organism-based, Macaca fascicularis; conditions: in vivo, 2.25 h
# [13] = Ratio of drug uptake in pons to cerebellum in anesthetized cynomolgus monkey after 175 mins postinjection; format: ADME, organism-based, Macaca fascicularis; conditions: in vivo
# Caudate [14] = experiment: Drug uptake in anesthetized cynomolgus monkey brain caudate after 205 mins postinjection; format: ADME, organism-based, Macaca fascicularis, Caudate nucleus; conditions: in vivo
# Pons [15] = experiment: Drug uptake in anesthetized cynomolgus monkey brain pons after 2.5 mins postinjection; format: ADME, organism-based, Macaca fascicularis; conditions: in vivo
# Putamen [16] = experiment: Drug uptake in anesthetized cynomolgus monkey brain putamen after 85 mins postinjection; format: ADME, organism-based, Macaca fascicularis; set-up: unit not given here; conditions: in vivo
# [17] = Ratio of drug uptake in medulla to cerebellum in anesthetized cynomolgus monkey after 35 mins postinjection; format: ADME, organism-based, Macaca fascicularis; conditions: in vivo
# Thalamus [18] = experiment: Drug uptake in anesthetized cynomolgus monkey brain thalamus after 95 mins postinjection; format: ADME, organism-based, Macaca fascicularis; set-up: unit not given here; conditions: in vivo
# Caudate [19] = experiment: Drug uptake in anesthetized cynomolgus monkey brain caudate after 145 mins postinjection; format: ADME, organism-based, Macaca fascicularis, Caudate nucleus; conditions: in vivo
# Thalamus [20] = experiment: Drug uptake in anesthetized cynomolgus monkey brain thalamus after 135 mins postinjection; format: ADME, organism-based, Macaca fascicularis; set-up: unit not given here; conditions: in vivo, 2.25 h
# Putamen [21] = experiment: Drug uptake in anesthetized cynomolgus monkey brain putamen after 15.5 mins postinjection; format: ADME, organism-based, Macaca fascicularis; set-up: unit not given here; conditions: in vivo
# Medulla [22] = experiment: Drug uptake in anesthetized cynomolgus monkey brain medulla after 115 mins postinjection; format: ADME, organism-based, Macaca fascicularis; conditions: in vivo
# Caudate [23] = experiment: Drug uptake in anesthetized cynomolgus monkey brain caudate after 85 mins postinjection; format: ADME, organism-based, Macaca fascicularis, Caudate nucleus; conditions: in vivo
# [24] = Ratio of drug uptake in midbrain to cerebellum in anesthetized cynomolgus monkey after 235 mins postinjection; format: ADME, organism-based, Macaca fascicularis; conditions: in vivo
# Caudate [25] = experiment: Drug uptake in anesthetized cynomolgus monkey brain caudate after 18.5 mins postinjection; format: ADME, organism-based, Macaca fascicularis, Caudate nucleus; conditions: in vivo
# Caudate [26] = experiment: Drug uptake in anesthetized cynomolgus monkey brain caudate after 35 mins postinjection; format: ADME, organism-based, Macaca fascicularis, Caudate nucleus; conditions: in vivo
# Caudate [27] = experiment: Drug uptake in anesthetized cynomolgus monkey brain caudate after 135 mins postinjection; format: ADME, organism-based, Macaca fascicularis, Caudate nucleus; conditions: in vivo, 2.25 h
# [28] = Ratio of drug uptake in medulla to cerebellum in anesthetized cynomolgus monkey after 85 mins postinjection; format: ADME, organism-based, Macaca fascicularis; conditions: in vivo
# [29] = Ratio of drug uptake in medulla to cerebellum in anesthetized cynomolgus monkey after 1.5 mins postinjection; format: ADME, organism-based, Macaca fascicularis; conditions: in vivo, 0.025 h
# Medulla [30] = experiment: Drug uptake in anesthetized cynomolgus monkey brain medulla after 145 mins postinjection; format: ADME, organism-based, Macaca fascicularis; conditions: in vivo
# Caudate [31] = experiment: Drug uptake in anesthetized cynomolgus monkey brain caudate after 1.5 mins postinjection; format: ADME, organism-based, Macaca fascicularis, Caudate nucleus; conditions: in vivo, 0.025 h
# Caudate [32] = experiment: Drug uptake in anesthetized cynomolgus monkey brain caudate after 55 mins postinjection; format: ADME, organism-based, Macaca fascicularis, Caudate nucleus; conditions: in vivo
# [33] = Drug uptake in anesthetized cynomolgus monkey brain occipital lobe after 155 mins postinjection; format: ADME, organism-based, Macaca fascicularis; conditions: in vivo
# [34] = Ratio of drug uptake in midbrain to cerebellum in anesthetized cynomolgus monkey after 125 mins postinjection; format: ADME, organism-based, Macaca fascicularis; conditions: in vivo
# Putamen [35] = experiment: Drug uptake in anesthetized cynomolgus monkey brain putamen after 135 mins postinjection; format: ADME, organism-based, Macaca fascicularis; conditions: in vivo, 2.25 h
# [36] = Drug uptake in anesthetized cynomolgus monkey brain cerebellum after 95 mins postinjection; format: ADME, organism-based, Macaca fascicularis; conditions: in vivo
# [37] = Ratio of drug uptake in caudate to cerebellum in anesthetized cynomolgus monkey after 18.5 mins postinjection; format: ADME, organism-based, Macaca fascicularis; conditions: in vivo
# Thalamus [38] = experiment: Drug uptake in anesthetized cynomolgus monkey brain thalamus after 205 mins postinjection; format: ADME, organism-based, Macaca fascicularis; conditions: in vivo
# Midbrain [39] = experiment: Drug uptake in anesthetized cynomolgus monkey brain midbrain after 45 mins postinjection; format: ADME, organism-based, Macaca fascicularis; set-up: unit not given here; conditions: in vivo, 0.75 h
# Thalamus [40] = experiment: Drug uptake in anesthetized cynomolgus monkey brain thalamus after 27.5 mins postinjection; format: ADME, organism-based, Macaca fascicularis; set-up: unit not given here; conditions: in vivo
# [41] = Drug uptake in anesthetized cynomolgus monkey brain cerebellum after 22.5 mins postinjection; format: ADME, organism-based, Macaca fascicularis; conditions: in vivo, 0.375 h
# [42] = Drug uptake in anesthetized cynomolgus monkey brain cerebellum after 195 mins postinjection; format: ADME, organism-based, Macaca fascicularis; conditions: in vivo, 3.25 h
# [43] = Ratio of drug uptake in medulla to cerebellum in anesthetized cynomolgus monkey after 195 mins postinjection; format: ADME, organism-based, Macaca fascicularis; conditions: in vivo, 3.25 h
# Pons [44] = experiment: Drug uptake in anesthetized cynomolgus monkey brain pons after 12.5 mins postinjection; format: ADME, organism-based, Macaca fascicularis; conditions: in vivo
# Putamen [45] = experiment: Drug uptake in anesthetized cynomolgus monkey brain putamen after 45 mins postinjection; format: ADME, organism-based, Macaca fascicularis; set-up: unit not given here; conditions: in vivo, 0.75 h
# [46] = Ratio of drug uptake in occipital lobe to cerebellum in anesthetized cynomolgus monkey after 18.5 mins postinjection; format: ADME, organism-based, Macaca fascicularis; conditions: in vivo
# Thalamus [47] = experiment: Drug uptake in anesthetized cynomolgus monkey brain thalamus after 215 mins postinjection; format: ADME, organism-based, Macaca fascicularis; set-up: unit not given here; conditions: in vivo
# [48] = Ratio of drug uptake in caudate to cerebellum in anesthetized cynomolgus monkey after 135 mins postinjection; format: ADME, organism-based, Macaca fascicularis; conditions: in vivo, 2.25 h
# [49] = Drug uptake in anesthetized cynomolgus monkey brain cerebellum after 1.5 mins postinjection; format: ADME, organism-based, Macaca fascicularis; conditions: in vivo, 0.025 h
# Midbrain [50] = experiment: Drug uptake in anesthetized cynomolgus monkey brain midbrain after 15.5 mins postinjection; format: ADME, organism-based, Macaca fascicularis; set-up: unit not given here; conditions: in vivo
# [51] = Ratio of drug uptake in frontal lobe to cerebellum in anesthetized cynomolgus monkey after 75 mins postinjection; format: ADME, organism-based, Macaca fascicularis; conditions: in vivo, 1.25 h
# Midbrain [52] = experiment: Drug uptake in anesthetized cynomolgus monkey brain midbrain after 225 mins postinjection; format: ADME, organism-based, Macaca fascicularis; conditions: in vivo, 3.75 h
compound,measurement,setting,value
O=C(OCC[18F])C1C2CCC(CC1c1ccc(/C=C\I)cc1)N2 (configuration not stated),Drug uptake,Midbrain [1],4.64
same,Drug uptake,Putamen [2],3.13
same,Drug uptake,Pons [3],3.39
same,Drug uptake,[4],1.08
same,Ratio,[5],0.7
same,Drug uptake,[6],1.3
same,Ratio,[7],1.8
same,Drug uptake,Putamen [8],0.45
same,Drug uptake,Pons [9],3.35
same,Drug uptake,[10],1.18
same,Drug uptake,Pons [11],3.4
same,Drug uptake,Midbrain [12],4.7
same,Ratio,[13],2.7
same,Drug uptake,Caudate [14],2.77
same,Drug uptake,Pons [15],0.36
same,Drug uptake,Putamen [16],4.32
same,Ratio,[17],1.4
same,Drug uptake,Thalamus [18],4.15
same,Drug uptake,Caudate [19],3.05
same,Drug uptake,Thalamus [20],3.99
same,Drug uptake,Putamen [21],2.71
same,Drug uptake,Medulla [22],3.8
same,Drug uptake,Caudate [23],3.03
same,Ratio,[24],4.4
same,Drug uptake,Caudate [25],1.84
same,Drug uptake,Caudate [26],2.33
same,Drug uptake,Caudate [27],3.1
same,Ratio,[28],1.8
same,Ratio,[29],1.4
same,Drug uptake,Medulla [30],3.61
same,Drug uptake,Caudate [31],0.07
same,Drug uptake,Caudate [32],2.73
same,Drug uptake,[33],2.02
same,Ratio,[34],2.7
same,Drug uptake,Putamen [35],4.33
same,Drug uptake,[36],2.14
same,Ratio,[37],0.7
same,Drug uptake,Thalamus [38],3.59
same,Drug uptake,Midbrain [39],3.76
same,Drug uptake,Thalamus [40],3.06
same,Drug uptake,[41],2.63
same,Drug uptake,[42],1.29
same,Ratio,[43],2.6
same,Drug uptake,Pons [44],1.88
same,Drug uptake,Putamen [45],3.8
same,Ratio,[46],0.7
same,Drug uptake,Thalamus [47],3.47
same,Ratio,[48],1.8
same,Drug uptake,[49],0.1
same,Drug uptake,Midbrain [50],2.58
same,Ratio,[51],0.9
same,Drug uptake,Midbrain [52],4.51
